Results on one molecule are retold here after PMC10819243 (Pharmaceutics, 2024).

One test deals with U-87MG cells. The experiment in a line: Apoptosis assay (DNA fragmentation), U-87MG. Type of test: cell-based. From the text: The necrosis process induced by all the tested compounds was very small.
The subject of another test is HeLa. Kind of test: MTT assay, HeLa. Type of test: cell-based. (In general: Tetrazolium assays rely on reduction of a dye to a coloured formazan, in cell work by metabolically active cells.)
Test [1] has as its system HeLa, KB, MCF-7, A-549 and HDF cell lines. Kind of test: MTT assay, statements over several tested cell lines. Type of test: cell-based. To be noted: summary over the tested cell lines; read-out: IC50 values for the tested cell lines (range or summary).
The next test has as its system MCF-7. The experiment in a line: MTT assay, MCF-7. Type of test: cell-based.
The subject of a further test is A-549. Kind of test: MTT assay, A-549. Type of test: cell-based.
In a further test the test system is KB. Kind of test: MTT assay, KB. Type of test: cell-based.
The test system of test [2] is HDF (normal fibroblast cell line). The experiment in a line: MTT assay, HDF. Type of test: cell-based, human.
[3] abbreviates: ratio of IC50 values vs oleanolic acid (1).

For `COC(=O)[C@]12CCC(C)(C)CC1C1=CCC3[C@@]4(C)CC/C(=N\OC(=O)c5cc([N+](=O)[O-])cc([N+](=O)[O-])c5)C(C)(C)C4CC[C@@]3(C)[C@]1(C)CC2` (some centres unmarked) [Compound 5g, 3-(3′,5′-Dinitro)benzoxyiminoolean-12-en-28-oic acid methyl ester], the “increase in DNA fragmentation” value is reported as 2.5 fold in the test on U-87MG cells (0.1 µg/mL) and 4.2 fold with U-87MG cells (1.0 µg/mL). Further, the half-inhibitory concentration (IC50) (commonly the point on the concentration scale where inhibition reaches its midpoint) in the test on HeLa (Homo sapiens, MTT assay, HeLa cervix carcinoma, (±s) standard deviation) is 4.19 µM; in test [1] it was 4.19 to 8.98 µM; with MCF-7 (Homo sapiens, MCF7, MTT assay, MCF-7 breast carcinoma, (±s) standard deviation), 5.18 µM; with A-549 (Homo sapiens, A549, MTT assay, A-549 lung carcinoma, (±s) standard deviation), 4.82 µM; with KB (Homo sapiens, MTT assay, KB nasopharynx carcinoma, (±s) standard deviation), 4.61 µM; in test [2] (Homo sapiens, Fibroblast, MTT assay, HDF normal fibroblast cell line, (±s) standard deviation), 6.22 µM. Also, the “Selectivity Index HeLa” value in the test on HeLa (IC50 for normal cell line (HDF)/IC50 for HeLa) is 1.48. The “fold as active as OA (1), HeLa” value with HeLa (setting [3]) is given as approximately 3 fold. In the test on MCF-7 (IC50 for normal cell line (HDF)/IC50 for MCF-7), the “Selectivity Index MCF-7” value amounted to 1.20. The “fold as active as OA (1), MCF-7” value with MCF-7 (setting [3]) is approximately 3 fold. In the test on A-549 (IC50 for normal cell line (HDF)/IC50 for A-549), the “Selectivity Index A-549” value is listed as 1.29. Besides, the “fold as active as OA (1), A-549” value with A-549 (setting [3]) is reported as approximately 2 fold. Also, the “Selectivity Index KB” value with KB (IC50 for normal cell line (HDF)/IC50 for KB) stood at 1.35. For the same molecule, the “fold as active as OA (1), KB” value in the test with KB (setting [3]) turned out to be 3.2 fold. The “fold as active as OA (1), HDF” value in test [2] (ratio of IC50 values vs oleanolic acid (1), normal cell line) is listed as approximately 3 fold.
